Legend:
U87-MG cells [1] = assay: Cell viability in combined treatments with TMZ; assay type: cell-based; details: Homo sapiens, U-87 MG, 100 μM TMZ, 72 h, read-out: cell viability, TMZ alone
Method: (§1) Glioma-cell lines were seeded at a density of 1.5 × 10^3 cells/well in 96-well plates, with six replicates per condition. […] Cell viability was determined by MTT assay at 72 h after treatment. For this, MTT (3-(4,5-dimethyl-2-thiazolyl)-2,5-diphenyl-2H-tetrazolium bromide) reagent was added and, after a 3 h incubation at 37 °C and 5% CO2, media was removed and the formed crystals were resuspended in DMSO. Plates were measured at 570 nm using a spectrophotometer. Results were analyzed by GraphPad Prism software and IC50 values were calculated.

A172 cells = assay: Dose-response MTT cell viability assay, A172; assay type: cell-based; details: Homo sapiens, A 172, 72 h, Fig. 2d
Method: as §1

T98-G cells = assay: Dose-response MTT cell viability assay, T98-G; assay type: cell-based; details: Homo sapiens, T98G, 72 h, Fig. 2d
Method: as §1

U373-MG cells = assay: Dose-response MTT cell viability assay, U373-MG; assay type: cell-based; details: Homo sapiens, 72 h, Fig. 2d
Method: as §1

[2] = tested on: patient-derived GNS179 stem cells; assay: Dose-response MTT cell viability assay, GNS179; assay type: cell-based; details: Homo sapiens, 72 h, Fig. 2d
Method: as §1

[3] = tested on: patient-derived GNS166 stem cells; assay: Dose-response MTT cell viability assay, GNS166; assay type: cell-based; details: Homo sapiens, 72 h, Fig. 2d
Method: as §1

U87-MG cells [4] = assay: Dose-response MTT cell viability assay, U87-MG; assay type: cell-based; details: Homo sapiens, U-87 MG, 72 h, Fig. 2d
Method: as §1

U251-MG cells = assay: Dose-response MTT cell viability assay, U251-MG; assay type: cell-based; details: Homo sapiens, U-251, 72 h, Fig. 2d
Method: as §1

[5] = tested on: acetyl-α-tubulin (HDAC6 main target) in U251-MG cells; assay: Western blot of acetyl-α-tubulin and cleaved PARP in U251-MG; assay type: cell-based, human; details: 10 nM, 48 h
Method: Immunoblots were performed following standard procedures. […] Detection was performed by chemiluminiscence using NOVEX ECL Chemi Substrate (ThermoFisher).

Cn1nnc2c(C(N)=O)ncn2c1=O [TMZ, temozolomide]
viability at 100 µM (U87-MG cells [1]): 85%

CN1CCc2c(c3ccccc3n2Cc2ccc(C(=O)NO)cc2)C1 [Tubastatin A]
IC50 (A172 cells): 52.5 µM
IC50 (T98-G cells): 104 µM
IC50 (U373-MG cells): 13.2 µM
IC50 [2]: 175 µM
IC50 [3]: 26.4 µM
IC50 (U87-MG cells [4]): 23.7 µM
IC50 (U251-MG cells): 26.3 µM
α-tubulin hyperacetylation [5]: did not

Reference: paper PMC7265429, “Characterization of a new small-molecule inhibitor of HDAC6 in glioblastoma” (Cell Death & Disease, 2020)
